Data taken from ChEMBL document CHEMBL4715830, “Design, synthesis and biological evaluation of suramin-derived dual antagonists of the proinflammatory G protein-coupled receptors P2Y and GPR17” (Eur J Med Chem, 2020).
pIC50: −log10 of the molar value. Calls of active or inactive are those of the source. The rule behind the calls is not given here.

Key:
[1] = target: P2Y purinoceptor 4 (Homo sapiens) (UniProt P51582); experiment: Antagonist activity at human P2Y4 receptor expressed in human 1321N1 cells assessed as inhibition of UTP-induced intracellular calcium influx at 10 to 100 uM preincubated for 20 mins followed by UTP addition measured at 0.4 secs interval for 60 times by Oregon Green BAPTA-1/AM dye-based fluorescence assay; assay type: functional, cell-based; conditions: dose 10-100 µM
P2Y purinoceptor 6 = P2Y purinoceptor 6 (Rattus norvegicus, UniProt Q63371); experiment: (§1) Antagonist activity at rat P2Y6 receptor expressed in human 1321N1 cells assessed as inhibition of UDP-induced intracellular calcium influx preincubated for 20 mins followed by UDP addition measured at 0.4 secs interval for 60 times by Oregon Green BAPTA-1/AM dye-based fluorescence assay; assay type: functional, cell-based
[2] = target: P2Y purinoceptor 1 (Homo sapiens) (UniProt P47900); experiment: Antagonist activity at human P2Y1 receptor expressed in human 1321N1 cells assessed as inhibition of ADP-induced intracellular calcium influx at 10 uM preincubated for 20 mins followed by ADP addition measured at 0.4 secs interval for 60 times by Oregon Green BAPTA-1/AM dye-based fluorescence assay; assay type: functional, cell-based
[3] = target: P2Y purinoceptor 12 (Homo sapiens) (UniProt Q9H244); experiment: Antagonist activity at recombinant human Gi/Go-coupled GP2Y12 receptor expressed in CHOK1 cells assessed as inhibition of 2-(Methylthio)ADP-induced inhibition of beta-arrestin recruitment at 10 uM by pathhunter assay; assay type: cell-based; conditions: CHO-K1
[4] = target: T1, P2Y purinoceptor 14 (Homo sapiens) (UniProt Q15391); experiment: Antagonist activity at recombinant human Gi/Go-coupled GP2Y14 receptor expressed in CHOK1 cells assessed as inhibition of […]-induced inhibition of beta-arrestin recruitment at 10 uM by pathhunter assay; assay type: cell-based
T1 sequence (whole entry): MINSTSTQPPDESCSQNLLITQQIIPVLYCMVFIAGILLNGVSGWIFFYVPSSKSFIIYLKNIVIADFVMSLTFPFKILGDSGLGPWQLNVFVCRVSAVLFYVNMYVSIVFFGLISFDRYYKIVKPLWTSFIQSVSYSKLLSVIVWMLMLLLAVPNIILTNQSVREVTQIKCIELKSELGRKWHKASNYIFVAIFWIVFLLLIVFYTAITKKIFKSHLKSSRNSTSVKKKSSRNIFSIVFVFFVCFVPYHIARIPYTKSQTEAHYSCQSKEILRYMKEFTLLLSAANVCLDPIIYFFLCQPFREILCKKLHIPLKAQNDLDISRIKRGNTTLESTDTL

[5] = target: P2Y purinoceptor 6 (Rattus norvegicus) (UniProt Q63371); experiment: as §1, with “influx at 10 to 100 uM” for “influx”; assay type: functional, cell-based; conditions: dose 10-100 µM
[6] = Chemical stability of compound in pH 3 MeOH/water solution measured after 24 hrs by HPLC-MS analysis; assay type: physicochemical; conditions: buffer, pH 3, 24 h
[7] = Chemical stability of compound in pH 7 MeOH/water solution measured after 24 hrs by HPLC-MS analysis; assay type: physicochemical; conditions: buffer, pH 7, 24 h
[8] = Chemical stability of compound in pH 7 MeOH/water solution at 70 degC measured after 24 hrs by HPLC-MS analysis; assay type: physicochemical; conditions: buffer, pH 7, 24 h
[9] = Drug metabolism in pH 9 MeOH/water solution assessed as methyl 4-(2-chlorobenzamido)benzenesulfonate formation measured after 24 hrs by HPLC-MS analysis
P2Y purinoceptor 2 = P2Y purinoceptor 2 (Homo sapiens, UniProt P41231); experiment: Antagonist activity at human P2Y2 receptor expressed in human 1321N1 cells assessed as inhibition of ATP-induced intracellular calcium influx preincubated for 20 mins followed by ATP addition measured at 0.4 secs interval for 60 times by Oregon Green BAPTA-1/AM dye-based fluorescence assay; assay type: functional, cell-based
[10] = target: T2, Uracil nucleotide/cysteinyl leukotriene receptor (Homo sapiens, UniProt Q13304); experiment: (§2) Antagonist activity at human GPR17 expressed in human 1321N1 cells assessed as inhibition of ATP-induced intracellular calcium influx preincubated for 20 mins followed by ATP addition measured at 0.4 secs interval for 60 times by Oregon Green BAPTA-1/AM dye-based fluorescence assay; assay type: functional, cell-based
[11] = target: T2, Uracil nucleotide/cysteinyl leukotriene receptor; experiment: as §2, with “influx at 10 uM” for “influx”, “assay relative to control” for “assay”; assay type: functional, cell-based

Sequence of P2Y purinoceptor 12 (Homo sapiens) (Q9H244 whole entry): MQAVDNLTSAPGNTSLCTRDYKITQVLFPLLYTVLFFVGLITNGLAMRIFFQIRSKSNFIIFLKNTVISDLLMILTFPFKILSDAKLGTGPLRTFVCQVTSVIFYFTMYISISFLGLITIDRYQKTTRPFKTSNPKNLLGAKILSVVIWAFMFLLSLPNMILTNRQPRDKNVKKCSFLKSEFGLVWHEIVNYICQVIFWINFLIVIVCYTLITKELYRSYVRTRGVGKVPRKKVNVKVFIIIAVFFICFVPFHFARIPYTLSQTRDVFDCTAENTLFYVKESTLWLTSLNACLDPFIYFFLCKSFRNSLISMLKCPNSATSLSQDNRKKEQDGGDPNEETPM
Sequence of P2Y purinoceptor 6 (Rattus norvegicus) (Q63371 whole entry): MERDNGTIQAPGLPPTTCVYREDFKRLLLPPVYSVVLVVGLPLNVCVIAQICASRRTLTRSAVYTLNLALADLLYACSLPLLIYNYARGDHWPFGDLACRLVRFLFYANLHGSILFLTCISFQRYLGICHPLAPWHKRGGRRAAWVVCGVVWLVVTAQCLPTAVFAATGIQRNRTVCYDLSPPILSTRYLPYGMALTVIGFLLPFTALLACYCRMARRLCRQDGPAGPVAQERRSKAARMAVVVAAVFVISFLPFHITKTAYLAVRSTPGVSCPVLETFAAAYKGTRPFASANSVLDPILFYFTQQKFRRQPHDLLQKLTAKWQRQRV
Sequence of P2Y purinoceptor 1 (Homo sapiens) (P47900 whole entry): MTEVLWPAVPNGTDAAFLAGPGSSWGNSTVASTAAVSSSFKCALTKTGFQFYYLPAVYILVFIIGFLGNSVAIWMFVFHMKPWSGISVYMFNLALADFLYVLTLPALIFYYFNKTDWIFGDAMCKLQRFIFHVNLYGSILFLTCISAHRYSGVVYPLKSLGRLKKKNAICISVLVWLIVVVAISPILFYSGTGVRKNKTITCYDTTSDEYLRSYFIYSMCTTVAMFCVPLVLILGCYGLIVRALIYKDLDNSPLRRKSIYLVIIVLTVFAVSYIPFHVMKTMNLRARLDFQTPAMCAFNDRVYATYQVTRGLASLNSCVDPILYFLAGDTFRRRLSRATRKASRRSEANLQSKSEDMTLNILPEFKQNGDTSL
Sequence of P2Y purinoceptor 4 (Homo sapiens) (P51582 whole entry): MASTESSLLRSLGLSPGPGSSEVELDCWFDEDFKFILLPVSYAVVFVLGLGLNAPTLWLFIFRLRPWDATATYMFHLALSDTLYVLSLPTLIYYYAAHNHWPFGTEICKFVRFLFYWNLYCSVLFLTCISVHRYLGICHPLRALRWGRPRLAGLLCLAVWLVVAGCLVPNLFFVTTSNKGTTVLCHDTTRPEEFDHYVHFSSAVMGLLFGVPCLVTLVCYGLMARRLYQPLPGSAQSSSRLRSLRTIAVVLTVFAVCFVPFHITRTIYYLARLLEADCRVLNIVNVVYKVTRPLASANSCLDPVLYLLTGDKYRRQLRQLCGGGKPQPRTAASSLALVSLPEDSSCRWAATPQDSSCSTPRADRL
T2 sequence (Q13304 whole entry): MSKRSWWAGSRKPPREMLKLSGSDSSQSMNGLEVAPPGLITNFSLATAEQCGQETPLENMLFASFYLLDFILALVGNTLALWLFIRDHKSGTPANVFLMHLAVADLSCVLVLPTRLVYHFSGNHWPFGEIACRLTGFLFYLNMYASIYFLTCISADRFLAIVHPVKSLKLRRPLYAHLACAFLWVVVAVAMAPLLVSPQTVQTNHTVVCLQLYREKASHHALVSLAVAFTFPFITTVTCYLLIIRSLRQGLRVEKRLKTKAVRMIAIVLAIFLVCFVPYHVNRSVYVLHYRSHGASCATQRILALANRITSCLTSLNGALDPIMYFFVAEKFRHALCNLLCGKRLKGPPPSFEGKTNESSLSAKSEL
Sequence of P2Y purinoceptor 2 (P41231 whole entry): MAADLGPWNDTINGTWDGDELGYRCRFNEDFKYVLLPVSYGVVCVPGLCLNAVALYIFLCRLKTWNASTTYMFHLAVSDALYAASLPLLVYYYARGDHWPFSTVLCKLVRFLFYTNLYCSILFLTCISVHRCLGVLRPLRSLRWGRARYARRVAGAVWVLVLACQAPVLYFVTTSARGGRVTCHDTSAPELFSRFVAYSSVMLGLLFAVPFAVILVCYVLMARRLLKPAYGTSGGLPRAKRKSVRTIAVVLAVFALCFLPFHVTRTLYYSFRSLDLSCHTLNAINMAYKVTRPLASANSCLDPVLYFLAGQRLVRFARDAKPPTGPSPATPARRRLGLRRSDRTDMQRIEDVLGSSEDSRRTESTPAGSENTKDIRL
Sequence of P2Y purinoceptor 6 (Q63371 whole entry): as the sequence (Q63371 whole entry) above

| SMILES | inhibition [1] | pIC50 (P2Y purinoceptor 6) | inhibition [2] | inhibition [3] | inhibition [4] | inhibition [5] | Stabilty [6] | Stabilty [7] | Stabilty [8] | Drug metabolism [9] | pIC50 (P2Y purinoceptor 2) | pIC50 [10] | inhibition [11] |
| --- | --- | --- | --- | --- | --- | --- | --- | --- | --- | --- | --- | --- | --- |
| Cc1cccc(C(=O)Nc2ccc(S(=O)(=O)Oc3cccc([N+](=O)[O-])c3)cc2)c1 | inactive | 5.21 | inactive | inactive | inactive | – | – | – | – | – | – | – | – |
| O=C(Nc1ccc(S(=O)(=O)Oc2cccc([N+](=O)[O-])c2)cc1)c1ccccc1Cl | inactive | – | inactive | inactive | inactive | inactive | Stable | Stable | Stable | 1.4% | – | – | – |
| Cc1cccc(C(=O)Nc2ccc(NC(=O)Nc3cccc(C(=O)O)c3)cc2)c1 | inactive | – | inactive | inactive | inactive | inactive | – | – | – | – | – | – | – |
| Cc1ccc(C(=O)Nc2ccc(S(=O)(=O)Oc3cccc([N+](=O)[O-])c3)cc2)cc1 | inactive | – | inactive | inactive | inactive | inactive | – | – | – | – | – | – | – |
| Cc1ccc(C(=O)Nc2ccc(S(=O)(=O)O)c3cc(S(=O)(=O)O)cc(S(=O)(=O)O)c23)cc1NC(=O)c1cccc(NC(=O)Nc2cccc(C(=O)Nc3cc(C(=O)Nc4ccc(S(=O)(=O)O)c5cc(S(=O)(=O)O)cc(S(=O)(=O)O)c45)ccc3C)c2)c1 [SURAMIN HEXASODIUM] | – | – | – | – | – | – | – | – | – | – | < 4.00 | < 4.00 | 33% |
| O=C(Nc1cccc(S(=O)(=O)Oc2cccc([N+](=O)[O-])c2)c1)c1cccc(Cl)c1 | inactive | – | inactive | inactive | inactive | inactive | – | – | – | – | – | – | – |
| Cc1cccc(C(=O)Nc2cccc(NC(=O)c3ccc([N+](=O)[O-])cc3)c2)c1 | inactive | – | inactive | inactive | inactive | inactive | – | – | – | – | – | – | – |
| Cc1cccc(C(=O)Nc2ccc(S(=O)(=O)Oc3cccc(C#N)c3)cc2)c1 | inactive | – | inactive | inactive | inactive | inactive | – | – | – | – | – | – | – |
| Cc1cccc(NC(=O)c2cccc(NC(=O)Nc3cccc(C(=O)O)c3)c2)c1 | inactive | – | inactive | inactive | inactive | inactive | – | – | – | – | – | – | – |
| O=C(Nc1cccc(S(=O)(=O)Oc2cccc([N+](=O)[O-])c2)c1)c1ccc(Cl)cc1 | inactive | – | inactive | inactive | inactive | inactive | – | – | – | – | – | – | – |
| O=C(Nc1cccc(S(=O)(=O)Oc2cccc([N+](=O)[O-])c2)c1)c1cccc(F)c1 | inactive | – | inactive | inactive | inactive | inactive | – | – | – | – | – | – | – |
| O=C(Nc1ccc(S(=O)(=O)Oc2cccc([N+](=O)[O-])c2)cc1)c1cccc(F)c1 | inactive | – | inactive | inactive | inactive | inactive | – | – | – | – | – | – | – |
| Cc1cccc(C(=O)Nc2ccc(NC(=O)c3cccc([N+](=O)[O-])c3)cc2)c1 | inactive | – | inactive | inactive | inactive | inactive | – | – | – | – | – | – | – |
| Cc1cccc(C(=O)Nc2ccc(S(=O)(=O)NCc3cccc(Cl)c3)cc2)c1 | inactive | – | inactive | inactive | inactive | inactive | – | – | – | – | – | – | – |
| Cc1cccc(C(=O)Nc2ccc(S(=O)(=O)Nc3cccc([N+](=O)[O-])c3)cc2)c1 | inactive | – | inactive | inactive | inactive | inactive | – | – | – | – | – | – | – |
| O=C(Nc1ccc(S(=O)(=O)Oc2cccc([N+](=O)[O-])c2)cc1)c1ccc(Cl)c(Cl)c1 | inactive | – | inactive | inactive | inactive | inactive | – | – | – | – | – | – | – |
| CCC(=O)c1cccc(C(=O)Nc2ccc(S(=O)(=O)Oc3cccc([N+](=O)[O-])c3)cc2)c1 | inactive | – | inactive | inactive | inactive | inactive | – | – | – | – | – | – | – |
| Cc1ccc(C(=O)Nc2ccc(S(=O)(=O)Nc3cccc([N+](=O)[O-])c3)cc2)cc1 | inactive | – | inactive | inactive | inactive | inactive | – | – | – | – | – | – | – |
| Cc1cccc(C(=O)Nc2cccc(NC(=O)c3cccc([N+](=O)[O-])c3)c2)c1 | inactive | – | inactive | inactive | inactive | inactive | – | – | – | – | – | – | – |
| Cc1cccc(C(=O)Nc2cccc(S(=O)(=O)Oc3cccc([N+](=O)[O-])c3)c2)c1 | inactive | – | inactive | inactive | inactive | inactive | – | – | – | – | – | – | – |
| Cc1cccc(C(=O)Nc2ccc(NC(=O)c3ccc([N+](=O)[O-])cc3)cc2)c1 | inactive | – | inactive | inactive | inactive | inactive | – | – | – | – | – | – | – |
